pIC50: −log10 of the molar value.
What was measured:
human ALDH-2 enzyme = biological target: T1, human ALDH-2 enzyme (Homo sapiens, UniProt P05091); conditions: read-out: IC50 ALDH-2; cited from earlier work
T1 sequence (P05091 18-517): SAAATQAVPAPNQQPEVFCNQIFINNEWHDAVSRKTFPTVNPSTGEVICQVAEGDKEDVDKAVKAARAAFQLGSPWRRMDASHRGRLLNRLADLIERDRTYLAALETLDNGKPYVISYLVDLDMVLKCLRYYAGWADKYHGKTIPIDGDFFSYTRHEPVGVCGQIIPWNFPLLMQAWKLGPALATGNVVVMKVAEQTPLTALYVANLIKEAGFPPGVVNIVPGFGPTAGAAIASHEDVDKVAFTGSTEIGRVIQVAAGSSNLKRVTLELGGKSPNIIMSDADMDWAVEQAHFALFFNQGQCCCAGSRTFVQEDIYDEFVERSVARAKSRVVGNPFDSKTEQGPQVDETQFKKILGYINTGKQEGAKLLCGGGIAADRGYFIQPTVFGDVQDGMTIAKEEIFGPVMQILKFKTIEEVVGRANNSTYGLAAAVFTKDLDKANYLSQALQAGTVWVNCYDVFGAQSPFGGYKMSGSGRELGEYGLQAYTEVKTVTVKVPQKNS

[1] = Phase 1 study of compound (2) with ethanol: pharmacokinetics of compound (1) and breath alcohol; conditions: after repeated EtOH administration
Source text: Plasma concentrations of compound (1) and BrAC were summarized and listed by treatment, subject and timepoint. Pharmacokinetic parameters derived for compound (1) were also summarized and listed by treatment and subject. Pharmacokinetic parameters were estimated using a non-compartmental approach with a log-linear terminal phase assumption. The trapezoidal rule was used to estimate the area under the curve (linear trapezoidal linear interpolation) and the terminal phase will be estimated by maximizing the coefficient of determination estimated from the log-linear regression model. However, AUC0-∞, AUClast/∞, λz and t1/2 parameters were to be estimated for individual concentration-time profiles only when the terminal log-linear phase could be reliably characterized.
Proportionality analysis was done using a power model. The power model was defined as: […]
A linear model with ln-transformed dose as a continuous effect was fitted. A point estimate and a 90% CI was derived for the slope (β). The parameter could be considered to be dose proportional if the 90% confidence interval of the slope β was within [1+ln(0.8)/ln(r), 1+ln(1.25)/ln(r)], where r=the highest dose studied/the lowest dose (Smith et al., “Confidence interval criteria for assessment of dose proportionality.” Pharm Res. 17 (10):1278-83 (2000)).

hMAO-B = biological target: T2, hMAO-B (Homo sapiens, UniProt P27338); conditions: read-out: IC50 hMAO-B; cited from earlier work
T2 sequence (P27338 1-520): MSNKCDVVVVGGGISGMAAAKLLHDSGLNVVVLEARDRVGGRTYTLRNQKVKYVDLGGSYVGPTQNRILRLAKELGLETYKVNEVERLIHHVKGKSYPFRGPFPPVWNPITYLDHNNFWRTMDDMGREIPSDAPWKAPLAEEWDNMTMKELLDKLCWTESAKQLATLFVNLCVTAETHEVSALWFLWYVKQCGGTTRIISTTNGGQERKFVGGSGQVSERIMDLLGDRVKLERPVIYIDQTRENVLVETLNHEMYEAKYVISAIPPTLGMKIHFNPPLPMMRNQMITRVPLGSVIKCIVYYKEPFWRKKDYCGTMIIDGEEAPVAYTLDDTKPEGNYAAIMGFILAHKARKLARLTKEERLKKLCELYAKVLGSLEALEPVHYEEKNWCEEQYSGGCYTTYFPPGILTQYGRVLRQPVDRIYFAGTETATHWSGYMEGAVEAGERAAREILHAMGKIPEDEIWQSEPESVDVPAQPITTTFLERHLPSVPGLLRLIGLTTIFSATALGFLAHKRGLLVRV

[2] = test system: healthy male alcohol drinkers; test: Phase 1 study of compound (2) with ethanol: pharmacodynamics (mDEQ-5); format: in vivo, human
Source text: The exploratory pharmacodynamic endpoints included maximum effect (Emax), maximum change from baseline (CFBmax), time to Emax (TEmax), and time-averaged area under the effect curve (TA_AUE), as applicable, derived from Modified 5-item Drug Effects Questionnaire (mDEQ-5) scores.
mDEQ-5 scores were summarized by timepoint and treatment using descriptive statistics. Derived endpoints (Emax, CFBmax, TEmax, TA_AUE, as applicable) were summarized by treatment using descriptive statistics. For each mDEQ-5-derived endpoint, an analysis of variance (ANOVA) was conducted to compare each of active doses to placebo with dose group as a factor. Results were presented in terms of LSMEANS, treatment differences in LSMEANS, 95% CI and p-values.
Ethanol consumption and number of EtOH doses consumed (i.e., number of drinks) during the repeat EtOH administration sessions were summarized using descriptive statistics.

O=C(NCc1ccc(-c2ccn(COP(=O)(O)O)c(=O)c2)cc1)c1c(Cl)cccc1Cl [Compound (2), phosphoric acid mono-(4-{4-[(2,6-dichloro-benzoylamino)-methyl]-phenyl}-2-oxo-2H-pyridin-1-ylmethyl) ester]
pIC50 (human ALDH-2 enzyme): < 5.00
peak breath alcohol concentrations compared with placebo [1]: slightly higher
pIC50 (hMAO-B): < 3.89
dose response on pharmacodynamic measures ([2]; 25-600 mg): did not show a consistent dose response
peak VAS scores: feeling any alcohol effects, feeling drunk, liking the effects of alcohol ([2]; all dose levels vs placebo): Peak scores for placebo were higher than scores for all compound (2) dose levels
